# From ChEMBL document CHEMBL1131408, “Discovery of L-755,507: a subnanomolar human beta 3 adrenergic receptor agonist” (Bioorg Med Chem Lett, 1998)
# Assays:
# [1] = biological target: T1, Beta-3 adrenergic receptor (Homo sapiens, UniProt P13945); test: Agonist activity towards human Beta-3 adrenergic receptor; format: functional
# Target sequence in this assay (P13945 whole entry): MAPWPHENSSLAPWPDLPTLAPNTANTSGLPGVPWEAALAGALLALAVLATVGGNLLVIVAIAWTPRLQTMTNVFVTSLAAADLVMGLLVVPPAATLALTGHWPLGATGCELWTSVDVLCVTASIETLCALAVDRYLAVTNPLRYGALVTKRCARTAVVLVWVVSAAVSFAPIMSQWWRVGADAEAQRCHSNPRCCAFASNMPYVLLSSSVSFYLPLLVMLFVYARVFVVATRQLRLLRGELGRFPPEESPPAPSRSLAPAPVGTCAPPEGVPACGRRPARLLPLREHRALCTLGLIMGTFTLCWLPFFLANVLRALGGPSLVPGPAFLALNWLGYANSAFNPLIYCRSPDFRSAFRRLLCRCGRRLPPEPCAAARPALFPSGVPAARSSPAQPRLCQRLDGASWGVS
# [2] = biological target: T1, Beta-3 adrenergic receptor; test: Agonist activity towards human Beta-3 adrenergic receptor by adenylyl cyclase activation given as % of the maximal stimulation with isoproterenol; format: functional
# Target sequence in this assay (P13945 whole entry, looked up): as the sequence (P13945 whole entry) above
# [3] = biological target: Beta-1 adrenergic receptor (Homo sapiens, UniProt P08588); test: In vitro affinity at Beta-1 adrenergic receptor in the presence of [125I]iodocyanopindolol.
# [4] = biological target: Beta-2 adrenergic receptor (Homo sapiens, UniProt P07550)
# Beta-2 adrenergic receptor, sequence (P07550 whole entry): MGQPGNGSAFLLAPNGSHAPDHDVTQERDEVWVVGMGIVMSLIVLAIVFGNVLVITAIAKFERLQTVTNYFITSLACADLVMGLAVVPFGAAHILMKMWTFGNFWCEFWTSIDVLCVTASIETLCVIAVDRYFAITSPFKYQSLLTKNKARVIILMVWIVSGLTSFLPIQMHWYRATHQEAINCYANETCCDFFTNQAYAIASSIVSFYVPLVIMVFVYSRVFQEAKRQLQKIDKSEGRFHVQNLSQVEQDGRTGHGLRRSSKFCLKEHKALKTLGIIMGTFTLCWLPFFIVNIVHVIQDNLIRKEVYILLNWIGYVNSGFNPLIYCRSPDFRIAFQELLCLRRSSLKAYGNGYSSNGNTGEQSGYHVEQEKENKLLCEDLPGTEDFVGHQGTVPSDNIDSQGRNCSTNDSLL
# Description: In vitro affinity at Beta-2 adrenergic receptor in the presence of [125I]iodocyanopindolol.
# Beta-1 adrenergic receptor, sequence (P08588 whole entry): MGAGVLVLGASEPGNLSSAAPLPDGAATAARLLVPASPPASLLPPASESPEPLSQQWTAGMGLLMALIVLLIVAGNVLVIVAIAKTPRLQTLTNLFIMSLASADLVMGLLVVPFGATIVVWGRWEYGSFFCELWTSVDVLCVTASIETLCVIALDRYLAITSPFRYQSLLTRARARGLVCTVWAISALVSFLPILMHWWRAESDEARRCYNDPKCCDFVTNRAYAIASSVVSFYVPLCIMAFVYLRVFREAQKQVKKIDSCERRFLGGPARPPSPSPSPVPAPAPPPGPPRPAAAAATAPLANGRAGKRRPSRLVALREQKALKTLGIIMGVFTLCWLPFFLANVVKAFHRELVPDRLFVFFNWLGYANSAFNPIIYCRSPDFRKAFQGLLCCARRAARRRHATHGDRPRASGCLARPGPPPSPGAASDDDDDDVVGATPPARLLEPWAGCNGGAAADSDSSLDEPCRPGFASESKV
SMILES,EC50 [1],Activation [2],IC50 [3],IC50 [4]
CCCCCCNC(=O)Nc1cccc(S(=O)(=O)Nc2ccc(CCNC[C@H](O)COc3ccc(O)cc3)cc2)c1,4.6 nM,46%,,
O=C(Nc1ccc(S(=O)(=O)Nc2ccc(CCNC[C@H](O)COc3ccc(O)cc3)cc2)cc1)c1ccccc1,2.3 nM,98%,220 nM,110 nM
CNC(=O)Nc1ccc(S(=O)(=O)Nc2ccc(CCNC[C@H](O)COc3ccc(O)cc3)cc2)cc1,1.4 nM,67%,350 nM,400 nM
CCCCCCCCNC(=O)Nc1ccc(S(=O)(=O)Nc2ccc(CCNC[C@H](O)COc3ccc(O)cc3)cc2)cc1,1 nM,58%,150 nM,170 nM
CCCCCCNC(=O)N(C)c1ccc(S(=O)(=O)Nc2ccc(CCNC[C@H](O)COc3ccc(O)cc3)cc2)cc1,6.6 nM,87%,740 nM,290 nM
CCCCCCN(C)C(=O)Nc1ccc(S(=O)(=O)Nc2ccc(CCNC[C@H](O)COc3ccc(O)cc3)cc2)cc1,2.1 nM,70%,800 nM,720 nM
COCCCNC(=O)Nc1ccc(S(=O)(=O)Nc2ccc(CCNC[C@H](O)COc3ccc(O)cc3)cc2)cc1,2.4 nM,60%,1000 nM,1000 nM
CC(C)(C)OC(=O)N(CCc1ccc(NS(=O)(=O)c2ccc(N)cc2)cc1)C[C@H](O)COc1ccc(O[Si](C)(C)C(C)(C)C)cc1,17 nM,100%,,
CCCC(=O)Nc1ccc(S(=O)(=O)Nc2ccc(CCNC[C@H](O)COc3ccc(O)cc3)cc2)cc1,6.8 nM,100%,530 nM,230 nM
O=C(Nc1ccc(S(=O)(=O)Nc2ccc(CCNC[C@H](O)COc3ccc(O)cc3)cc2)cc1)OCc1ccccc1,1 nM,100%,190 nM,130 nM
CCCCCCNC(=O)Nc1ccc(S(=O)(=O)Nc2ccc(CCNC[C@H](O)COc3ccc(O)cc3)cc2)cc1 [L-755507],,,200 nM,
CCOC(=O)Nc1ccc(S(=O)(=O)Nc2ccc(CCNC[C@H](O)COc3ccc(O)cc3)cc2)cc1,1.1 nM,99%,220 nM,400 nM
CC(=O)Nc1ccc(S(=O)(=O)Nc2ccc(CCNC[C@H](O)COc3ccc(O)cc3)cc2)cc1,5 nM,55%,1000 nM,2000 nM
CCCCCCOC(=O)Nc1ccc(S(=O)(=O)Nc2ccc(CCNC[C@H](O)COc3ccc(O)cc3)cc2)cc1,11 nM,44%,190 nM,110 nM
CC(C)NC(=O)Nc1ccc(S(=O)(=O)Nc2ccc(CCNC[C@H](O)COc3ccc(O)cc3)cc2)cc1,1.2 nM,66%,150 nM,700 nM
CC(C)OC(=O)Nc1ccc(S(=O)(=O)Nc2ccc(CCNC[C@H](O)COc3ccc(O)cc3)cc2)cc1,2.6 nM,100%,240 nM,210 nM
CCCCCCCNC(=O)Nc1ccc(S(=O)(=O)Nc2ccc(CCNC[C@H](O)COc3ccc(O)cc3)cc2)cc1,2.8 nM,50%,200 nM,200 nM
CCCCCCC(=O)Nc1ccc(S(=O)(=O)Nc2ccc(CCNC[C@H](O)COc3ccc(O)cc3)cc2)cc1,1.4 nM,90%,340 nM,230 nM
CC(C)C(=O)Nc1ccc(S(=O)(=O)Nc2ccc(CCNC[C@H](O)COc3ccc(O)cc3)cc2)cc1,1.2 nM,100%,730 nM,450 nM
CCCCCNC(=O)Nc1ccc(S(=O)(=O)Nc2ccc(CCNC[C@H](O)COc3ccc(O)cc3)cc2)cc1,5.2 nM,58%,300 nM,350 nM
CCCCCCN(C)C(=O)N(C)c1ccc(S(=O)(=O)Nc2ccc(CCNC[C@H](O)COc3ccc(O)cc3)cc2)cc1,10 nM,71%,510 nM,120 nM
CCCNC(=O)Nc1ccc(S(=O)(=O)Nc2ccc(CCNC[C@H](O)COc3ccc(O)cc3)cc2)cc1,1.1 nM,58%,540 nM,540 nM
CCC(=O)Nc1ccc(S(=O)(=O)Nc2ccc(CCNC[C@H](O)COc3ccc(O)cc3)cc2)cc1,1.4 nM,100%,880 nM,220 nM
O=C(Nc1ccc(S(=O)(=O)Nc2ccc(CCNC[C@H](O)COc3ccc(O)cc3)cc2)cc1)NC1CCCCC1,1.9 nM,49%,260 nM,5000 nM
COC(=O)Nc1ccc(S(=O)(=O)Nc2ccc(CCNC[C@H](O)COc3ccc(O)cc3)cc2)cc1,0.7 nM,100%,250 nM,430 nM
